Source: patent publication US11332438B2, “Creatine prodrugs, compositions and methods of use thereof” (Ultragenyx Pharmaceutical Inc., priority 2017, dated 2022)
Blank lines part the entries; values can stand above or below the compound they belong to.

Columns and labels:
[1] = Plasma stability, human plasma; format: in vitro ADME; conditions: for half-life: 37 °C, read-out: Plasma Stability Human t1/2
Description: (§1) The stabilities of creatine prodrugs can be evaluated in one or more in vitro systems using a variety of preparations following methods known in the art. Experimental conditions useful for the in vitro studies are described in Table 1. Prodrug is added to each preparation in triplicate. […]
(§2) Protocol for plasma stability for early screen macrocycles (Method A):
(§3) Frozen plasma was thawed by placing at 37° C. quickly and centrifuged at 3,000 rpm for 8 minutes to remove clots. Then the supernatant was pipetted and pooled as the plasma to be used in the experiment. The plasma was placed on ice until used. The test compounds and reference compounds spiking solution was prepared as a 2.5 mM test compounds spiking solution A: Add 20 μL of 10 mM test compounds stock solution to 60 μL DMSO. 0.1 mM Spiking solution B was prepared: Add 40 μL of spiking solution A to 960 μL of […] Sodium phosphate buffer with 0.5% BSA. […] For 0-min, 400 μL of ACN containing IS was added to the wells of 0-min plate and then 90 μL of plasma was added. […] 50 μL of the supernatant was transferred from each well into a 96-well sample plate containing 120 μL of ultra pure water (Millipore, ZMQS50F01) and analyzed by LC/MS.
(§4) Protocol for plasma stability (Method B):
(§5) The frozen plasma was thawed in a 37° C. water bath and then, if needed, adjusted to pH=7.4 then preheated in a 37° C. incubator. The test article was dissolved in 10% DMSO/water and spiked into plasma pre-plated into 96 well plates at a final concentration of 1 μM. Discrete incubations were performed at 37° C. and included 5 time points: t=0, 2, 5, 15, and 30 min. Samples were then crashed with 4× volume, ice cold 20% water/80% acetonitrile and spun at 4000 g for 10 mins. The supernatant was dried down and reconstituted with water and analyzed by LC-MS/MS. The half life in minute was calculated.

[2] = Liver microsome stability, human; format: in vitro ADME; conditions: liver microsomes, read-out: Microsome Stability Human t1/2
Description: as §1
(§6) Protocol for Microsomal Stability:
(§7) For reference compound, a 500 μM spiking solution was prepared: add 10 μL of 10 mM DMSO stock solution into 190 μL ACN. […] For test compound, a 5 mM spiking solution was prepared: add 10 μL of 10 mM DMSO stock solution into 10 μL ACN. […] NADPH stock solution (6 mM) was prepared by dissolving NADPH into buffer 0.1 M Potassium Phosphate buffer, 1.0 mM EDTA, pH 7.4. […] For 0-min, 135 μL of ACN containing IS was added to the wells of 0-min plate and then 15 μL of NADPH stock solution (6 mM) was added. 15 μL of NADPH stock solution (6 mM) was added to the samples designated as 0-, 5-, 10-, 20-, 30-min, 60-min; 15 μL of buffer 0.1 M Potassium Phosphate buffer, 1.0 mM EDTA, pH 7.4, was added to the samples designated as 60-min without NADPH. At 5-min, 10-min, 20-min, and 30-min, 60-min 135 μL of ACN containing IS was added to the wells of corresponding plates, respectively, to stop the reaction. […] 50 μL of the supernatant from each well was transferred into a 96-well sample plate containing 50 μL of ultra pure water (Millipore, ZMQS50FOI) and analyzed by LC/MS.

[3] = Plasma stability, mouse plasma; format: in vitro ADME; conditions: for half-life: 37 °C, read-out: Plasma Stability Mouse t1/2
Description: as §1, §2, §3, §4, §5

[4] = Liver microsome stability, mouse; format: in vitro ADME; conditions: liver microsomes, read-out: Microsome Stability Mouse t1/2
Description: as §1, §6, §7

[5] = Chemical stability in simulated gastric fluid (SGF) without pepsin; format: physicochemical; conditions: 50 μM prodrug
Description: (§8) Chemical stability of creatine prodrugs in phosphate buffered saline (PBS), simulated intestinal fluid (SIF) without pancreatin, simulated gastric fluid (SGF) without pepsin were determined by LC-UV, LC-CAD, LC-UV-CAD or LC-MS/MS as appropriate. Creatine prodrugs of the present disclosure (50 μM) were incubated at 37° C. according to described protocols and prodrug levels were compared between t=0, t=15, t=60, and t=120 mins by peak area ratio to determine the percentage remained at t=120 mins (2 h).
(§9) Protocol for PBS, SIF and SGF stability for screening:
(§10) Prodrugs (50 μM) were incubated in PBS, FaSSIF (Biorelevant) or FaSSGF (Biorelevant) at 37° C.

[6] = Chemical stability in phosphate buffered saline (PBS); format: physicochemical; conditions: 50 μM prodrug
Description: as §8, §9, §10

Compound: O=CO.[2H]C([2H])([2H])N1CC(=O)OCCCCCCCC(=O)NC1=N [Compound BB, 5-imino-4-trideuteriomethylguanidino-1-oxa-4,6-diazacyclotetradecane-2,7-dione Formate]
Plasma Stability Human t1/2 [1]: 9 min
Plasma Stability Mouse t1/2 [3]: <2 min

Compound: Cl.[2H]C([2H])([2H])N1CC(=O)O[C@@H](C)CCCCCCCCCC(=O)NC1=N [Compound PP, (S)-5-imino-17-methyl-4-(methyl-d3)-1-oxa-4,6-diazacycloheptadecane-2,7-dione Hydrochloride]
half-life ([1]; Table 2C, macrocycles): 8 min
half-life ([3]; Table 2C, macrocycles): 1.1 min

Compound: [2H]C([2H])([2H])N1CC(=O)OCCCCCCCCCCCC(=O)NC1=N [Compound QQ, 5-imino-4-trideuteriomethyl-1-oxa-4,6-diazacyclooctadecane-2,7-dione]
half-life at 10 μM ([2]; pH 7.4, Table 2C): 9 min
Chemical Stability SGF, no enzyme % T0 at 2 hours at 37 °C. ([5]; Table 2C): 79%
half-life at 10 μM ([4]; pH 7.4, Table 2C): 4 min
Chemical Stability PBS % T0 at 2 hours at 37 °C. ([6]; Table 2C): 85%

Compound: Cl.[2H]C([2H])([2H])N1CC(=O)OC(CC)CCCCCCCCCC(=O)NC1=N (stereo not drawn) [Compound L, 17-ethyl-5-imino-4-trideuteriomethyl-1-oxa-4,6-diazacycloheptadecane-2,7-dione Hydrochloric Acid Salt]
half-life ([1]; Table 2C, macrocycles): 34 min
half-life at 10 μM ([2]; pH 7.4, Table 2C): 1.6 min
half-life ([3]; Table 2C, macrocycles): 3 min
half-life at 10 μM ([4]; pH 7.4, Table 2C): 0.6 min

Compound: Cl.[2H]C([2H])([2H])N1CC(=O)OC(C)CCCCCCCCCC(=O)NC1=N (stereo not drawn) [Compound K, 5-imino-4-trideuteriomethylguanidino-17-dimethyl-1-oxa-4,6-diazacycloheptadecane-2,7-dione Dihydrochloride]
half-life ([1]; Table 2C, macrocycles): 13 min
half-life ([3]; Table 2C, macrocycles): 2 min

Compound: [2H]C([2H])([2H])N1CC(=O)OCCCCCCCCC(=O)NC1=N [Compound DD, 5-imino-4-trideuteriomethyl-1-oxa-4,6-diazacyclopentadecane-2,7-dione]
half-life ([1]; Table 2C, macrocycles): 8.3 min
half-life ([3]; Table 2C, macrocycles): < 2 min

Compound: O=CO.[2H]C([2H])([2H])N1CC(=O)OCCCCCCCCCC(=O)NC1=N [Compound SS, 5-imino-4-trideuteriomethyl-1-oxa-4,6-diazacyclohexadecane-2,7-dione Formic Acid Salt]
half-life ([1]; Table 2C, macrocycles): > 90 min
Chemical Stability SGF, no enzyme % T0 at 2 hours at 37 °C. ([5]; Table 2C): 85%
Chemical Stability PBS % T0 at 2 hours at 37 °C. ([6]; Table 2C): 0%

Continued, values first:

half-life ([1]; Table 2A): > 180 min
half-life at 10 μM ([2]; pH 7.4, Table 2A): > 180 min
half-life ([3]; Table 2A): > 180 min
half-life at 10 μM ([4]; pH 7.4, Table 2A): 123 min
Compound: [2H]C([2H])([2H])N(CC(=O)O)C(=NC(=O)OC(C)(C)C)NC(=O)CCCCCCCCCC [Compound 34]

half-life ([1]; Table 2A): > 180 min
half-life at 10 μM ([2]; pH 7.4, Table 2A): 110 min
half-life ([3]; Table 2A): > 180 min
half-life at 10 μM ([4]; pH 7.4, Table 2A): > 145 min
Compound: [2H]C([2H])([2H])N(CC(=O)[O-])C(=N)NC(=O)CCCCCCCCCC.[Na+] [Compound 32]

half-life ([1]; Table 2A): > 180 min
half-life at 10 μM ([2]; pH 7.4, Table 2A): 114 min
half-life ([3]; Table 2A): > 180 min
half-life at 10 μM ([4]; pH 7.4, Table 2A): > 145 min
Compound: [2H]C([2H])([2H])N(CC(=O)[O-])C(=N)NC(=O)CCCCCCC.[Li+] [Compound 37]

Chemical Stability SGF, no enzyme % T0 at 2 hours at 37 °C. ([5]; Table 2B): 94%
Chemical Stability PBS % T0 at 2 hours at 37 °C. ([6]; Table 2B): 97%
Compound: Cl.[2H]C([2H])([2H])N(CC(=O)OC(C)(C)C(F)(F)F)C(=N)NC(=O)CCCCCC [Compound 55]

Chemical Stability SGF, no enzyme % T0 at 2 hours at 37 °C. ([5]; Table 2B): 30%
Chemical Stability PBS % T0 at 2 hours at 37 °C. ([6]; Table 2B): 101%
Compound: Cl.[2H]C([2H])([2H])N(CC(=O)OC(C)(C)C(F)(F)F)C(=N)NC(=O)CCCCCCCCCC [Compound 59]

Chemical Stability SGF, no enzyme % T0 at 2 hours at 37 °C. ([5]; Table 2A): 98%
Chemical Stability PBS % T0 at 2 hours at 37 °C. ([6]; Table 2A): 97%
Compound: Cl.[2H]C([2H])([2H])N(CC(=O)OCc1oc(=O)oc1C)C(=N)NC(=O)CCCCCCCCCC [Compound 48]

Chemical Stability SGF, no enzyme % T0 at 2 hours at 37 °C. ([5]; Table 2B): 91%
Chemical Stability PBS % T0 at 2 hours at 37 °C. ([6]; Table 2B): 64%
Compound: Cl.[2H]C([2H])([2H])N(CC(=O)OC(C)C(C)(C)C)C(=N)NC(=O)CCCCCC (stereo not drawn) [Compound 53]
